Test results from ChEMBL document CHEMBL1141830, “Stereoselective total synthesis of (3R,8S)-falcarindiol, a common polyacetylenic compound from umbellifers” (J Nat Prod, 1999).
Converted amounts (≈) assume the structure as drawn.

What was measured:
[1] = Antiproliferative activity against human MK1 cells by MTT assay; format: cell-based; settings: read-out: ED50 (the source's name)
[2] = tested on: Escherichia coli; experiment: Antimicrobial activity against Escherichia coli DC2; format: functional
[3] = tested on: Staphylococcus aureus; experiment: Antimicrobial activity against methicillin-resistant Staphylococcus aureus SAP0017; format: functional
[4] = tested on: Staphylococcus aureus; experiment: Antimicrobial activity against methicillin-sensitive Staphylococcus aureus K147; format: functional
[5] = tested on: Bacillus subtilis; experiment: Antimicrobial activity against Bacillus subtilis Vernon; format: functional

## C=C[C@@H](O)C#CC#C[C@@H](O)/C=C\CCCCCCC [FALCARINDIOL]
[1]
  GI50: 3.2 µg/mL (≈ 12.3 µM)
[2]
  MIC: 2.5 µg/mL (≈ 9.6 µM)
[3]
  MIC: 25 µg/mL (≈ 96 µM)
[4]
  MIC: 12.5 µg/mL (≈ 48 µM)
[5]
  MIC: 12.5 µg/mL (≈ 48 µM)
